Measurements taken from patent US11780826B2 (Amgen Inc., priority 2017, dated 2023).

Each compound was assayed on Bovine cardiac myofibrils (assay: In vitro model of dose-dependent myofibril ATPase modulation (AC1.4, pyruvate kinase/lactate dehydrogenase-coupled ATPase assay at pCa25)). Settings: concentration at which ATPase activity was 1.4-fold higher than the bottom of the dose curve, mean of a minimum of two independent tests.
Type: biochemical
Method: In vitro Model of Dose-Dependent Myofibril ATPase Modulation: Dose responses were measured using a calcium-buffered, pyruvate kinase and lactate dehydrogenase-coupled ATPase assay containing the following reagents (concentrations expressed are final assay concentrations): Potassium PIPES (12 mM), MgCl2 (2 mM), ATP (1 mM), DTT (1 mM), BSA (0.1 mg/mi), NADH (0.5 mM), PEP (1.5 mM), pyruvate kinase (4 U/ml), lactate dehydrogenase (8 U/ml), and antifoam (90 ppm). The pH was adjusted to 6.80 at 22° C. by addition of potassium hydroxide.
Bovine cardiac myofibrils were obtained by homogenizing the appropriate tissue in the presence of detergent. Such treatment removes membranes and majority of soluble cytoplasmic proteins but leaves intact cardiac sarcomeric acto-myosin apparatus. Concentrations of myofibrils were adjusted to achieve the necessary rate of ATP hydrolysis (typically 0.25-1.0 mg/ml).
Assays were performed by first preparing a dilution series of test chemical entity, each with an assay mixture containing potassium Pipes, MgCl2, BSA, DTT, pyruvate kinase, lactate dehydrogenase, myofibrils, antifoam, EGTA, CaCl2, and water. The assay was started by adding an equal volume of solution containing potassium Pipes, MgCl2, BSA, DTT, ATP, NADH, PEP, antifoam, and water. ATP hydrolysis was monitored by absorbance at 340 nm. The resulting dose response curve was fit by the 4 parameter equation y=Bottom+((Top−Bottom)/(1+((EC50/X)^Hill))). […] AC1.4 values reported in the table below are mean values based on a minimum of two independent tests.

Structure (SMILES) | AC1.4
CCNc1ccc(S(C)(=O)=O)cc1C(=O)N1[C@@H](C(=O)N[C@@H](c2ccc(C(F)(F)F)cc2F)C2CC2)C[C@H]2C[C@H]21 [Example 50, (1R,3R,5R)-N-((R)-cyclopropyl(2-fluoro-4-(trifluoromethyl)phenyl)methyl)-2-(2-(ethylamino)-5-(methylsulfonyl)benzoyl)-2-azabicyclo[3.1.0]hexane-3-carboxamide] | 0.0546 µM
N#CC1CN(S(=O)(=O)N2CCC[C@H](C(=O)N3CCC[C@@H]3C(=O)NCc3ccc(Cl)c(F)c3)C2)C1 [Example 51, N-(4-chloro-3-fluorobenzyl)-1-(((3S)-1-((3-cyano-1-azetidinyl)sulfonyl)-3-piperidinyl)carbonyl)-D-prolinamide] | 0.0553 µM
N#CC1CN(S(=O)(=O)c2cccc(C(=O)N3CCC[C@@H]3C(=O)N[C@@H](c3ccc(S(F)(F)(F)(F)F)cc3)C3CC3)c2)C1 [Example 52, 1-(3-((3-cyano-1-azetidinyl)sulfonyl)benzoyl)-N-((R)-cyclopropyl(4-(pentafluoro-lambda~6~-sulfanyl)phenyl)methyl)-D-prolinamide] | 0.05535 µM
N#CC1CN(S(=O)(=O)c2cc(F)cc(C(=O)N3CCC[C@@H]3C(=O)NCc3ccc(C(F)(F)F)cc3)c2)C1 [Example 53, 1-((3-((3-cyano-1-azetidinyl)sulfonyl)-5-fluorophenyl)carbonyl)-N-(4-(trifluoromethyl)benzyl)-D-prolinamide] | 0.0574 µM
C[C@@H](NC(=O)[C@H]1COCCN1C(=O)[C@H]1CCCN(S(=O)(=O)N2CC(C#N)C2)C1)c1ccc(C(F)(F)F)cc1F [Example 54, (3R)-4-(((3S)-1-((3-cyano-1-azetidinyl)sulfonyl)-3-piperidinyl)carbonyl)-N-((1R)-1-(2-fluoro-4-(trifluoromethyl)phenyl)ethyl)-3-morpholinecarboxamide] | 0.0583 µM
N#CC1CN(S(=O)(=O)c2cccc(C(=O)N3CCC[C@@H]3C(=O)NCc3cc(F)cc(F)c3)c2)C1 [Example 55, 1-(3-((3-cyano-1-azetidinyl)sulfonyl)benzoyl)-N-(3,5-difluorobenzyl)-D-prolinamide] | 0.0606 µM
N#CC1CN(S(=O)(=O)N2CCC[C@H](C(=O)N3C[C@@H](F)C[C@@H]3C(=O)NCc3ccc(C(F)(F)F)cc3)C2)C1 [Example 56, (4S)-1-(((3S)-1-((3-cyano-1-azetidinyl)sulfonyl)-3-piperidinyl)carbonyl)-4-fluoro-N-(4-(trifluoromethyl)benzyl)-D-prolinamide] | 0.06215 µM
N#CC1CN(S(=O)(=O)c2cccc(C(=O)N3CCC[C@@H]3C(=O)N[C@H](CO)c3ccc(Cl)cc3)c2)C1 [Example 57, N-((1S)-1-(4-chlorophenyl)-2-hydroxyethyl)-1-(3-((3-cyano-1-azetidinyl)sulfonyl)benzoyl)-D-prolinamide] | 0.06485 µM
CN(C)S(=O)(=O)c1cccc(C(=O)N2CCC[C@@H]2C(=O)N[C@@H](c2ccc(C(F)(F)F)cc2F)C2CC2)c1 [Example 58, N-((R)-cyclopropyl(2-fluoro-4-(trifluoromethyl)phenyl)methyl)-1-(3-(dimethylsulfamoyl)benzoyl)-D-prolinamide] | 0.06485 µM
N#C[C@H]1C[C@@H](S(=O)(=O)N2CCC[C@H](C(=O)N3CCC[C@@H]3C(=O)NCc3ccc(C(F)(F)F)cc3)C2)C1 [Example 59, 1-(((3S)-1-((cis-3-cyanocyclobutyl)sulfonyl)-3-piperidinyl)carbonyl)-N-(4-(trifluoromethyl)benzyl)-D-prolinamide] | 0.06495 µM
Cc1cc(C(F)(F)F)ccc1CNC(=O)[C@H]1CCCN1C(=O)[C@H]1CCCN(S(=O)(=O)N2CC(C#N)C2)C1 [Example 60, 1-(((3S)-1-((3-cyano-1-azetidinyl)sulfonyl)-3-piperidinyl)carbonyl)-N-(2-methyl-4-(trifluoromethyl)benzyl)-D-prolinamide] | 0.0657 µM
CC(C)Nc1ccc(S(C)(=O)=O)cc1C(=O)N1[C@@H](C(=O)N[C@@H](c2ccc(C(F)(F)F)cc2F)C2CC2)C[C@H]2C[C@H]21 [Example 61, (1R,3R,5R)-N-((R)-cyclopropyl(2-fluoro-4-(trifluoromethyl)phenyl)methyl)-2-(5-(methylsulfonyl)-2-(2-propanylamino)benzoyl)-2-azabicyclo[3.1.0]hexane-3-carboxamide] | 0.0687 µM
N#CC1CN(S(=O)(=O)N2CCC[C@H](C(=O)N3CCC[C@@H]3C(=O)NCc3ccc(C(F)(F)F)cc3F)C2)C1 [Example 62, 1-(((3S)-1-((3-cyano-1-azetidinyl)sulfonyl)-3-piperidinyl)carbonyl)-N-(2-fluoro-4-(trifluoromethyl)benzyl)-D-prolinamide] | 0.07198 µM
N#CC1CN(S(=O)(=O)N2CCC[C@H](C(=O)N3CCC[C@@H]3C(=O)NCc3ccc(C(F)(F)F)cc3Cl)C2)C1 [Example 63, N-(2-chloro-4-(trifluoromethyl)benzyl)-1-(((3S)-1-((3-cyano-1-azetidinyl)sulfonyl)-3-piperidinyl)carbonyl)-D-prolinamide] | 0.07385 µM
N#CC1CN(S(=O)(=O)c2cccc(C(=O)N3CCC[C@@H]3C(=O)NCc3ccc(Cl)c(F)c3)c2)C1 [Example 64, N-(4-chloro-3-fluorobenzyl)-1-((3-((3-cyano-1-azetidinyl)sulfonyl)phenyl)carbonyl)-D-prolinamide] | 0.0744 µM
N#CC1CN(S(=O)(=O)N2CCC[C@H](C(=O)N3CCCC[C@@H]3C(=O)NCc3ccc(C(F)(F)F)cc3)C2)C1 [Example 65, (2R)-1-(((3S)-1-((3-cyano-1-azetidinyl)sulfonyl)-3-piperidinyl)carbonyl)-N-(4-(trifluoromethyl)benzyl)-2-piperidinecarboxamide] | 0.0748 µM
CCS(=O)(=O)c1cccc(C(=O)N2[C@@H](C(=O)N[C@@H](c3cc(F)c(Cl)cc3F)C3COC3)C[C@H]3C[C@H]32)c1 [Example 66, (1R,3R,5R)-N-((R)-(4-chloro-2,5-difluorophenyl)(3-oxetanyl)methyl)-2-(3-(ethylsulfonyl)benzoyl)-2-azabicyclo[3.1.0]hexane-3-carboxamide] | 0.0766 µM
CC(C)C[C@@H](NC(=O)[C@H]1CCCN1C(=O)[C@H]1CCCN(S(=O)(=O)N2CC(C#N)C2)C1)c1ccc(C(F)(F)F)cc1 [Example 68, 1-(((3S)-1-((3-cyano-1-azetidinyl)sulfonyl)-3-piperidinyl)carbonyl)-N-((1R)-3-methyl-1-(4-(trifluoromethyl)phenyl)butyl)-D-prolinamide] | 0.0784 µM
C[C@@H](NC(=O)[C@H]1CCCN1C(=O)[C@H]1CCCN(S(=O)(=O)N2CC(C#N)C2)C1)c1ccc(Cl)c(F)c1 [Example 69, N-((1R)-1-(4-chloro-3-fluorophenyl)ethyl)-1-(((3S)-1-((3-cyano-1-azetidinyl)sulfonyl)-3-piperidinyl)carbonyl)-D-prolinamide] | 0.08835 µM
N#CC1CN(S(=O)(=O)N2CCC[C@H](C(=O)N3CCC[C@@H]3C(=O)NCc3ccc(Cl)cc3F)C2)C1 [Example 70, N-(4-chloro-2-fluorobenzyl)-1-(((3S)-1-((3-cyano-1-azetidinyl)sulfonyl)-3-piperidinyl)carbonyl)-D-prolinamide] | 0.08855 µM
C[C@@H](NC(=O)[C@H]1CCCN1C(=O)c1cccc(S(=O)(=O)N2CC(C#N)C2)c1)c1ccc(Cl)cc1 [Example 71, N-((1R)-1-(4-chlorophenyl)ethyl)-1-((3-((3-cyano-1-azetidinyl)sulfonyl)phenyl)carbonyl)-D-prolinamide] | 0.08898 µM
CS(=O)(=O)C1CN(S(=O)(=O)N2CCC[C@H](C(=O)N3CCC[C@@H]3C(=O)NCc3ccc(C(F)(F)F)cc3)C2)C1 [Example 72, 1-(((3S)-1-((3-(methylsulfonyl)-1-azetidinyl)sulfonyl)-3-piperidinyl)carbonyl)-N-(4-(trifluoromethyl)benzyl)-D-prolinamide] | 0.09025 µM
C[C@@H](NC(=O)[C@H]1CCCN1C(=O)[C@@H]1CN(S(=O)(=O)N2CC(C#N)C2)CCO1)c1ccc(C(F)(F)F)cc1F [Example 73, 1-(((2S)-4-((3-cyano-1-azetidinyl)sulfonyl)-2-morpholinyl)carbonyl)-N-((1R)-1-(2-fluoro-4-(trifluoromethyl)phenyl)ethyl)-D-prolinamide] | 0.09745 µM
CS(=O)(=O)c1cccc(C(=O)N2[C@@H](C(=O)N[C@@H](c3cc(F)c(Cl)cc3F)C3COC3)C[C@H]3C[C@H]32)c1 [Example 74, (1R,3R,5R)-N-((R)-(4-chloro-2,5-difluorophenyl)(3-oxetanyl)methyl)-2-(3-(methylsulfonyl)benzoyl)-2-azabicyclo[3.1.0]hexane-3-carboxamide] | 0.09935 µM
CN(Cc1ccc(C(F)(F)F)cc1)C(=O)[C@H]1CCCN1C(=O)c1cccc(S(=O)(=O)N2CC(C#N)C2)c1 [Example 75, 1-((3-((3-cyano-1-azetidinyl)sulfonyl)phenyl)carbonyl)-N-methyl-N-(4-(trifluoromethyl)benzyl)-D-prolinamide] | 0.1006 µM
